Like-named read-outs stand apart in the source and are kept apart here.
What was measured:
TEL-CSF1R-BaF3 = biological target: T1, TEL-CSF1R-BaF3 (Homo sapiens, UniProt P07333); assay: Proliferation of TEL-CSF1R-BaF3 cells (CCK-8, 72 hours); format: cell-based; conditions: for GI50: 72 hours incubation, CCK-8
T1 construct: expressed in transfected cells; host or cells: mouse BaF3 cells (ATCC), retroviral transduction with MSCV-Puro vector, IL-3 withdrawn; the other entry of the earlier key: ETV6 (P41212, Transcription factor ETV6)
T1 sequence (P07333 582-910 limits assumed): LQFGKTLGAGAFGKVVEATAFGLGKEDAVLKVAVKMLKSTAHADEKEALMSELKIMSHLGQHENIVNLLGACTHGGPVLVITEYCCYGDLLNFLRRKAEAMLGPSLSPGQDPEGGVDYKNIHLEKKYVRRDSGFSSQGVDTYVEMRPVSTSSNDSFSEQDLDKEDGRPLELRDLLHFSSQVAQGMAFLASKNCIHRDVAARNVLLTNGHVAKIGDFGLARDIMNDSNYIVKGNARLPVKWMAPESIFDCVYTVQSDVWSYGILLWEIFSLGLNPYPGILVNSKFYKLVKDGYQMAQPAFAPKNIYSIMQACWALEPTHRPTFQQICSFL
Description: (§1) The incubated cells were detected by CCK-8 (purchased from MedChem Express, China) cell viability detection kit (CCK-8 can be reduced by dehydrogenases in living cells to a highly water-soluble yellow formazan product, and the amount of the generated formazan product is proportional to the number of living cells). The number of living cells was quantified by a microplate reader, and the GI50 for each compound was calculated (the results are shown in Table 2).
The construction method of the TEL-CSF1R-BaF3 cell line (a cell line stably expressing CSF1R kinase) was as follows: the sequence of human CSF1R kinase region was amplified by PCR and inserted into the MSCV-Puro vector (Clontech) with an N-terminal TEL fragment, and stably transferred into mouse BaF3 cells (purchased from ATCC, USA) by a retroviral method, and IL-3 growth factor was removed, finally a cell line dependent on CSF1R transferred protein was obtained.

M-NSF-60 = assay: Proliferation of M-NSF-60 cells with M-CSF (CCK-8, 72 hours); format: cell-based, mouse; conditions: for GI50: Mus musculus, read-out: M-NSF-60 (GI50/μM)
Description: as §1

[1] = M-CSF 50 ng/ml in medium, 72 hours incubation, CCK-8
[2] = result in words, summary of Table 2

SMILES | GI50 (TEL-CSF1R-BaF3) [µM] | GI50 (M-NSF-60; 72 h) [µM] | GI50 (M-NSF-60; [1]) [µM] | inhibitory effect on the proliferation of TEL-CSF1R-BaF3 (TEL-CSF1R-BaF3; [2]) | inhibitory effect on the proliferation of M-NSF-60 (M-NSF-60; [2])
COc1cc2nccc(Oc3ccc(NC(=O)Cc4ccccc4)cn3)c2cc1OC [Comparative Example 1, N-(6-((6,7-dimethoxyquinolin-4-yl)oxy)pyridin-3-yl)-2-phenylacetamide, reference compound] | > 10 | > 10 | – | – | –
COc1cc2nccc(Oc3ncc(NC(=O)Cc4cccc(C(F)(F)F)c4)cc3Cl)c2cc1OC [Comparative Example 2, N-(5-chloro-6-((6,7-dimethoxyquinolin-4-yl)oxy)pyridin-3-yl)-2-(3-(trifluoromethyl)phenyl)acetamide, reference compound] | 2.54 | – | 7.84 | – | –
COc1cc2nccc(Oc3ccc(C(=O)NCc4cccc(C(F)(F)F)c4)cc3)c2cc1OC [Comparative Example 3, N-(3-(trifluoromethyl)benzyl)-4-((6,7-dimethoxyquinolin-4-yl)oxy)benzamide, reference compound] | 1.23 | – | 2.4 | – | –
COc1cccc(CC(=O)Nc2ccc(Oc3ncnc4cc(OC)c(OC)cc34)cc2)c1 [Comparative Example 4, N-(4-((6,7-dimethoxyquinazolin-4-yl)oxy)phenyl)-2-(3-methoxyphenyl)acetamide, reference compound] | 0.17 | – | 0.55 | certain inhibitory activity | certain inhibitory activity
COc1cc2nccc(Oc3ccc(NC(=O)Cc4ccc(C)c(C(F)(F)F)c4)cc3)c2cc1OC [Example 1, N-(4-((6,7-dimethoxyquinolin-4-yl)oxy)phenyl)-2-(4-methyl-3-(trifluoromethyl)phenyl)acetamide] | 0.002 | 0.009 | – | – | –
COc1cc2nccc(Oc3ccc(NC(=O)Cc4ccccc4)cc3)c2cc1OC [Example 3, N-(4-((6,7-dimethoxyquinolin-4-yl)oxy)phenyl)-2-phenylacetamide] | 0.012 | – | 0.1 | – | –
COc1cc2nccc(Oc3ccc(NC(=O)Cc4ccc(Cl)c(F)c4)cc3)c2cc1OC [Example 5, N-(4-((6,7-dimethoxyquinolin-4-yl)oxy)phenyl)-2-(4-chloro-3-fluorophenyl)acetamide] | 0.001 | – | 0.035 | – | –
COc1cc2nccc(Oc3ccc(NC(=O)Cc4cccc(C(F)(F)F)c4)c(Cl)c3)c2cc1OC [Example 6, N-(2-chloro-4-((6,7-dimethoxyquinolin-4-yl)oxy)phenyl)-2-(3-(trifluoromethyl)phenyl)acetamide] | 0.017 | – | 0.06 | – | –
COc1cc2nccc(Oc3ccc(NC(=O)Cc4ccc(C(F)(F)F)cc4)c(Cl)c3)c2cc1OC [Example 7, N-(2-chloro-4-((6,7-dimethoxyquinolin-4-yl)oxy)phenyl)-2-(4-(trifluoromethyl)phenyl)acetamide] | 0.009 | – | 0.03 | – | –
COc1cc2nccc(Oc3ccc(NC(=O)Cc4cccc(C(F)(F)F)c4)cc3)c2cc1OC [Example 8, N-(4-((6,7-dimethoxyquinolin-4-yl)oxy)phenyl)-2-(3-(trifluoromethyl)phenyl)acetamide] | 0.001 | – | 0.006 | – | –
COc1cc2nccc(Oc3ccc(NC(=O)Cc4ccc(C(F)(F)F)cc4)cc3)c2cc1OC [Example 9, N-(4-((6,7-dimethoxyquinolin-4-yl)oxy)phenyl)-2-(4-(trifluoromethyl)phenyl)acetamide] | 0.002 | – | 0.007 | – | –
COc1ccc(CC(=O)Nc2ccc(Oc3ccnc4cc(OC)c(OC)cc34)cc2)cc1OC [Example 10, N-(4-((6,7-dimethoxyquinolin-4-yl)oxy)phenyl)-2-(3,4-dimethoxyphenyl)acetamide] | 0.009 | – | 0.038 | – | –
COc1cc2nccc(Oc3ccc(NC(=O)Cc4ccc(C)c(C)c4)cc3)c2cc1OC [Example 11, N-(4-((6.7-dimethoxyquinolin-4-yl)oxy)phenyl)2-(3,4-dimethylphenyl)acetamide] | 0.001 | – | 0.005 | – | –
COc1cc2nccc(Oc3ccc(NC(=O)Cc4ccc(F)c(F)c4)cc3)c2cc1OC [Example 12, N-(4-((6,7-dimethoxyquinolin-4-yl)oxy)phenyl)-2-(3,4-difluorophenyl)acetamide] | 0.003 | – | 0.065 | – | –
COc1cc2nccc(Oc3ccc(NC(=O)Cc4ccc(F)c(C(F)(F)F)c4)cc3)c2cc1OC [Example 13, N-(4-((6,7-dimethoxyquinolin-4-yl)oxy)phenyl)-2-(4-fluoro-3-(trifluoromethyl)phenyl)acetamide] | 0.002 | – | 0.018 | – | –
COc1cc2nccc(Oc3ccc(NC(=O)Cc4c(F)cccc4F)cc3)c2cc1OC [Example 14, N-(4-((6,7-dimethoxyquinolin-4-yl)oxy)phenyl)-2-(2,6-difluorophenyl)acetamide] | 0.012 | – | 0.26 | – | –
COc1cc2nccc(Oc3ccc(NC(=O)Cc4ccc(F)cc4F)cc3)c2cc1OC [Example 15, N-(4-((6,7-dimethoxyquinolin-4-yl)oxy)phenyl)-2-(2,4-difluorophenyl)acetamide] | 0.003 | – | 0.051 | – | –
COc1cc2nccc(Oc3ccc(NC(=O)Cc4ccc(C)c(F)c4)cc3)c2cc1OC [Example 16, N-(4-((6,7-dimethoxyquinolin-4-yl)oxy)phenyl)-2-(3-fluoro-4-methylphenyl)acetamide] | 0.001 | – | 0.033 | – | –
COc1cc2nccc(Oc3ccc(NC(=O)Cc4ccc(Cl)c(Cl)c4)cc3)c2cc1OC [Example 17, N-(4-((6,7-dimethoxyquinolin-4-yl)oxy)phenyl)-2-(3,4-dichlorophenyl)acetamide] | 0.002 | – | 0.042 | – | –
COc1cc2nccc(Oc3ccc(NC(=O)Cc4ccc5c(c4)OCO5)cc3)c2cc1OC [Example 18, N-(4-((6,7-dimethoxyquinolin-4-yl)oxy)phenyl)-2-(benzo[d][1,3]dioxol-5-yl)acetamide] | 0.002 | – | 0.062 | – | –
COc1cc2nccc(Oc3ccc(NC(=O)Cc4ccc5ccccc5c4)cc3)c2cc1OC [Example 19, N-(4-((6,7-dimethoxyquinolin-4-yl)oxy)phenyl)-2-(naphth-2-yl)acetamide] | 0.0008 | – | 0.074 | – | –
COc1cc2nccc(Oc3ccc(NC(=O)Cc4cccc(F)c4)cc3)c2cc1OC [Example 20, N-(4-((6,7-dimethoxyquinolin-4-yl)oxy)phenyl)-2-(3-fluorophenyl)acetamide] | 0.006 | – | 0.13 | – | –
COc1cc2nccc(Oc3ccc(NC(=O)Cc4ccc(Cl)c(C(F)(F)F)c4)c(Cl)c3)c2cc1OC [Example 23, N-(2-chloro-4-((6,7-dimethoxyquinolin-4-yl)oxy)phenyl)-2-(4-chloro-3-(trifluoromethyl)phenyl)acetamide] | 0.008 | – | 0.061 | – | –
COc1cc2nccc(Oc3ccc(NC(=O)Cc4ccc(Cl)c(C(F)(F)F)c4)c(F)c3)c2cc1OC [Example 24, N-(2-fluoro-4-((6,7-dimethoxyquinolin-4-yl)oxy)phenyl)-2-(4-chloro-3-(trifluoromethyl)phenyl)acetamide] | 0.002 | – | 0.024 | – | –
COc1cc2nccc(Oc3ccc(NC(=O)Cc4ccc(Cl)c(C(F)(F)F)c4)cc3F)c2cc1OC [Example 25, N-(3-fluoro-4-((6,7-dimethoxyquinolin-4-yl)oxy)phenyl)-2-(4-chloro-3-(trifluoromethyl)phenyl)acetamide] | 0.003 | – | 0.05 | – | –
COc1cc2nccc(Oc3ccc(NC(=O)Cc4ccc(Cl)c(C(F)(F)F)c4)c(C)c3)c2cc1OC [Example 26, N-(2-methyl-4-((6,7-dimethoxyquinolin-4-yl)oxy)phenyl)-2-(4-chloro-3-(trifluoromethyl)phenyl)acetamide] | 0.006 | – | 0.06 | – | –
COc1cc2nccc(Oc3ccc(NC(=O)Cc4ccc(Cl)c(C(F)(F)F)c4)cc3C)c2cc1OC [Example 27, N-(3-methyl-4-((6,7-dimethoxyquinolin-4-yl)oxy)phenyl)-2-(4-chloro-3-(trifluoromethyl)phenyl)acetamide] | 0.003 | – | 0.041 | – | –
COc1cc2nccc(Oc3ccc(NC(=O)NCCCN4CCOCC4)cc3)c2cc1OC [Example 28, 1-(4-((6,7-dimethoxyquinolin-4-yl)oxy)phenyl)-3-(3-morpholinopropyl)urea] | 0.012 | – | – | – | –
COc1cc2nccc(Oc3ccc(NC(=O)NCCCN4CCN(C)CC4)cc3)c2cc1OC [Example 29, 1-(4-((6,7-dimethoxyquinolin-4-yl)oxy)phenyl)-3-(3-(4-methylpiperazin-1-yl)propyl)urea] | 0.011 | – | – | – | –
COc1cc2nccc(Oc3ccc(NC(=O)Cc4ccc(Cl)c(C(F)(F)F)c4)cc3OC)c2cc1OC [Example 37, N-(3-methoxy-4-((6,7-dimethoxyquinolin-4-yl)oxy)phenyl)-2-(4-chloro-3-(trifluoromethyl)phenyl)acetamide] | 0.004 | – | 0.075 | – | –
